Source: ChEMBL document CHEMBL3813695, “Assessment of the anti-metastatic properties of sanguiin H-6 in HUVECs and MDA-MB-231 human breast cancer cells” (Bioorg Med Chem Lett, 2016)
Calls of active or inactive are those of the source. The calls are words filed in the database; no cut-off is given here.

What was measured:
HUVEC [1] = assay: Inhibition of tube formation in HUVEC at 6.25 uM measured after 24 hrs by Mayers hematoxylin staining based light microscopic analysis relative to control; assay type: functional; conditions: Homo sapiens
HUVEC [2] = assay: Cytotoxicity against HUVEC assessed as inhibition of cell proliferation after 24 hrs by MTT assay; assay type: cell-based; conditions: human
HUVEC [3] = assay: Antimigratory activity against HUVEC at 6.25 uM measured after 24 hrs by Mayers hematoxylin and eosin-Y staining based microscopic analysis relative to control; assay type: functional, Homo sapiens
MDA-MB-231 [4] = assay: Cytotoxicity against human MDA-MB-231 cells assessed as decrease in cell viability at 6.25 to 25 uM after 24 hrs by MTT assay; assay type: functional, cell-based
MDA-MB-231 [5] = assay: Cytotoxicity against human MDA-MB-231 cells assessed as decrease in cell viability at 200 uM after 24 hrs by MTT assay; assay type: functional, cell-based
MDA-MB-231 [6] = assay: Decrease in VEGF expression in human MDA-MB-231 cells after 24 hrs by western blotting method; assay type: functional, cell-based
[7] = target: RAC-alpha serine/threonine-protein kinase (Homo sapiens) (UniProt P31749); assay: Decrease in phosphorylated Akt level in human MDA-MB-231 cells after 24 hrs by western blotting method; assay type: cell-based
[8] = target: Mitogen-activated protein kinase; ERK1/ERK2 (Homo sapiens) (UniProt P27361+P28482); assay: Decrease in phosphorylated ERK1/2 level in human MDA-MB-231 cells after 24 hrs by western blotting method; assay type: cell-based
HUVEC [9] = assay: Cytotoxicity against HUVEC assessed as inhibition of cell proliferation up to 12.5 uM after 24 hrs by MTT assay; assay type: cell-based; conditions: human

Sequence of Mitogen-activated protein kinase; ERK1/ERK2 (Homo sapiens) (P27361 whole entry, looked up): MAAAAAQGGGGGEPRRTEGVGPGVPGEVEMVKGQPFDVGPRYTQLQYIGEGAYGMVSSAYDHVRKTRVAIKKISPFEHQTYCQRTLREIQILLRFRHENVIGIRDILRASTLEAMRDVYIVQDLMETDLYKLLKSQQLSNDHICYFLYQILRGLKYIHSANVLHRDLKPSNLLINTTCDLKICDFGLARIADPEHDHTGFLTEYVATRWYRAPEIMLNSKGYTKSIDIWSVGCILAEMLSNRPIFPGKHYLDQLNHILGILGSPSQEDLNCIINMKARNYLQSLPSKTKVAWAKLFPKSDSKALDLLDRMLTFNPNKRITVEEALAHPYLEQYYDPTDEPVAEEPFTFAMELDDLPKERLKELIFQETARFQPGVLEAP
Sequence of Mitogen-activated protein kinase; ERK1/ERK2 (Homo sapiens) (P28482 whole entry, looked up): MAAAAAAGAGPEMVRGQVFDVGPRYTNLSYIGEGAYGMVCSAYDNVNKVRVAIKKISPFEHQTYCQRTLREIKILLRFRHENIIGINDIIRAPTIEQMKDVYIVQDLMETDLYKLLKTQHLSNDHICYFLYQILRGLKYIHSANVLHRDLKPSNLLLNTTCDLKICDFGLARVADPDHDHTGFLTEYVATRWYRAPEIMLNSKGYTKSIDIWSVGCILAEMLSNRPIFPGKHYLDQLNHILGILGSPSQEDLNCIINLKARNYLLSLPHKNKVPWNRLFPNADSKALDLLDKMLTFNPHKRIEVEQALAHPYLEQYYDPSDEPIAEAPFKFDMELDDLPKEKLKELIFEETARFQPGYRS
Sequence of RAC-alpha serine/threonine-protein kinase (Homo sapiens) (P31749 whole entry): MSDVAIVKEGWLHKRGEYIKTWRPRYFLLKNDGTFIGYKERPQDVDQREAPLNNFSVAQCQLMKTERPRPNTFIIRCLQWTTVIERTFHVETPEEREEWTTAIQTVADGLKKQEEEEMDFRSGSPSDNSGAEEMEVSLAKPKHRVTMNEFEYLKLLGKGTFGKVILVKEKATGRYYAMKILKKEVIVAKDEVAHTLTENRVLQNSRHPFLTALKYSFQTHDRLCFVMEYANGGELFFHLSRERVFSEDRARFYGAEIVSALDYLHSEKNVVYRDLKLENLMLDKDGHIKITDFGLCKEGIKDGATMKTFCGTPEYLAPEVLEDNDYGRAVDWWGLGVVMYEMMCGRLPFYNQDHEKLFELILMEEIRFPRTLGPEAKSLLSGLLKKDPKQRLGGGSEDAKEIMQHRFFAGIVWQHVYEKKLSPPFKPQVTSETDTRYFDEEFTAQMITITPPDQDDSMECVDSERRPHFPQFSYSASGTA

- inhibition [7]: Active
- inhibition [8]: Active
Compound: O=C(O[C@@H]1O[C@@H]2COC(=O)c3cc(O)c(O)c(O)c3-c3c(cc(O)c(O)c3O)C(=O)O[C@H]2[C@@H]2OC(=O)c3cc(O)c(O)c(O)c3-c3c(cc(O)c(O)c3O)C(=O)O[C@@H]12)c1cc(O)c(O)c(Oc2c(O)c(O)c(O)c3c2C(=O)O[C@H]2[C@@H]4OC(=O)c5cc(O)c(O)c(O)c5-c5c(cc(O)c(O)c5O)C(=O)O[C@H]4[C@@H](OC(=O)c4cc(O)c(O)c(O)c4)O[C@@H]2COC(=O)c2cc(O)c(O)c(O)c2-3)c1
- inhibition at 6.25 µM (HUVEC [1]): 41.5%
- inhibition (INH) (HUVEC [2]): Dose-dependent effect
- Activity (HUVEC [3]): 37.6%
- inhibition (MDA-MB-231 [4]): inactive
- inhibition (MDA-MB-231 [5]): Active
- inhibition (MDA-MB-231 [6]): Active
- Activity (HUVEC [9]): Non-toxic
